{"source": "patent US20230061201A1", "about": "“COMPOSITION FOR PREVENTING OR TREATING CHRONIC OBSTRUCTIVE PULMONARYDISEASE COMPRISING REGORAFENIB AS ACTIVE INGREDIENT” (Chungbuk National University Industry-Academic Cooperation …, priority 2021, published 2023)", "assay_type_in_all_cases": "in vivo, C57BL/6 mice", "key": {"[1]": {"system": "mouse animal model with emphysema induced by porcine pancreatic elastase (PPE)", "experiment": "Immune cells in bronchoalveolar lavage fluid of PPE-induced emphysema mice", "conditions": "BAL fluid day 4", "source_text": "The present inventors performed an experiment to determine whether regorafenib has activity capable of treating chronic obstructive pulmonary disease. The initial response induced by PPE (porcine pancreatic elastase) representatively includes immune responses that occur in damaged lung tissue. The activated immune response promotes the proliferation of various immune cells and the secretion of various inflammatory mediators. Specifically, the overall number of immune cells increases with an increase in individual immune cells involved in the immune response. In particular, an increase in the numbers of macrophages, lymphocytes, eosinophils, and neutrophils is observed. The increase in the number of these cells can be confirmed through a bronchoalveolar lavage (BAL) fluid test.\nTherefore, in the present invention, mice with chronic obstructive pulmonary disease, particularly emphysema, in which alveolar damage was induced by reducing elastin content using PPE, were prepared and then treated with regorafenib to thus analyze whether chronic obstructive pulmonary disease was ameliorated. Specifically, 6-week-old C57BL/6 mice were purchased and acclimatized for one week. Thereafter, the acclimatized 7-week-old mice (average 25 g) were orally administered with 200 µl of regorafenib (SelleckChem, BAY 73-4506) at a concentration of 5 mg/kg. […] The stained slide was analyzed and quantified using a microscope.\nAccording to the method described above, a mouse animal model of chronic obstructive pulmonary disease was prepared by administering the mouse lungs with 5U of PPE, and in order to verify whether the immune response was modulated, one day before administration of PPE and on days 2 and 3 after administration of PPE, regorafenib (5 mg/kg) was administered thereto, and on day 4, bronchoalveolar lavage fluid was obtained and the immune cells therein were stained to thus quantitatively analyze the type of immune cells and the number of individual cells. […]"}, "[2]": {"system": "mouse animal model with emphysema induced by porcine pancreatic elastase (PPE)", "experiment": "Alveolar size (mean linear intercept, Lm) in PPE-induced emphysema mice", "conditions": "regorafenib 5 mg/kg oral for one week from two weeks after PPE 5U nasal; lungs on week 3, H&E", "source_text": "One of the pathological indicators of chronic obstructive pulmonary disease is changed alveolar size. Changes in the alveolar size can be analyzed by quantifying the mean linear intercept (Lm) value, representing the average distance between the alveolar walls, in a microscopic field of view. When chronic obstructive pulmonary disease is induced, this value increases, indicating an increase in the alveolar size.\nTherefore, the present inventors analyzed whether it is possible to alleviate changes in lung structure by measuring the change in Lm value due to treatment with regorafenib in a mouse animal model with emphysema, a chronic obstructive pulmonary disease, prepared over three weeks through administration of PPE (FIG. 2A).\nSpecifically, 6-week-old C57BL/6 mice were acclimatized for one week, after which the acclimatized 7-week-old mice (average 25 g) were subjected to nasal administration with saline and PPE [elastase from porcine pancreas] (EPC, EC134) at a concentration of 5U. […] The prepared block was cut using a sectioning machine, attached to a slide, subjected to H&E staining, and then quantified by measuring the Lm value based on microscopic images."}, "[3]": {"system": "mouse animal model with emphysema induced by porcine pancreatic elastase (PPE)", "experiment": "Lung function (flexiVent) in PPE-induced emphysema mice", "conditions": "regorafenib 5 mg/kg oral for one week from two weeks after PPE 5U nasal; flexiVent on week 3", "source_text": "In addition, the present inventors performed an experiment to determine whether regorafenib is able to restore lost function of damaged lungs in order to confirm whether regorafenib is able to treat chronic obstructive pulmonary disease.\nSpecifically, 6-week-old C57BL/6 mice were purchased and acclimatized for one week, after which the acclimatized 7-week-old mice (average 25 g) were subjected to nasal administration with saline and PPE [elastase from porcine pancreas] (EPC, EC134) at a concentration of 5U. Two weeks after administration, the mice were orally administered with 200 µl of regorafenib (SelleckChem, BAY 73-4506) at a concentration of 5 mg/kg for one week. Then, the mice were anesthetized using 300 µl of anesthetic on week 3, after which the lung function of each mouse was measured using a flexiVent (system for measuring the function of lungs) and quantified by subtracting the error value therefrom."}}, "data": [{"smiles": "CNC(=O)c1cc(Oc2ccc(NC(=O)Nc3ccc(Cl)c(C(F)(F)F)c3)c(F)c2)ccn1", "note": "[regorafenib]", "values": [{"measurement": "numbers of eosinophils", "setting": "[1]; regorafenib 5 mg/kg oral", "value": "significantly decreased"}, {"measurement": "numbers of neutrophils", "setting": "[1]; regorafenib 5 mg/kg oral", "value": "significantly decreased"}, {"measurement": "decrease of the number of immune cells increased due to PPE", "setting": "[1]; regorafenib 5 mg/kg oral one day before and on days 2 and 3 after PPE 5U nasal", "value": "about 50%"}, {"measurement": "decrease of Lm value compared to the PPE treatment group", "setting": "[2]", "value": "about 50%"}, {"measurement": "lung function indicators", "setting": "[3]", "value": "restored"}]}]}
